# Source: the NIST ThermoML archive (doi:10.1016/j.tca.2016.03.013)
# “And” between values parts separate entries of the source, which are not always exact repeats. Equal values may be shown once. Numbers after ± are expanded uncertainties.
# What was measured:
# [1] = for vapor or sublimation pressure: Liquid, Rate of evaporation; for Normal melting temperature: DTA
# [2] = Molar enthalpy of transition or fusion; settings: DSC
# [3] = molar heat capacity at constant pressure; settings: 101.33 kPa, Small sample (50 mg) DSC
compound,measurement,setting,value
c1ccc2cc3ccccc3cc2c1 [anthracene],vapor or sublimation pressure,[1]; 494 K,5.794 ± 1.8 kPa
same,vapor or sublimation pressure,[1]; 496 K,6.242 ± 2 kPa
same,vapor or sublimation pressure,[1]; 498 K,6.713 ± 2.1 kPa
same,vapor or sublimation pressure,[1]; 500 K,7.174 ± 2.3 kPa
same,vapor or sublimation pressure,[1]; 502 K,7.662 ± 2.4 kPa
same,vapor or sublimation pressure,[1]; 504 K,8.173 ± 2.6 kPa
same,vapor or sublimation pressure,[1]; 506 K,8.694 ± 2.7 kPa
same,vapor or sublimation pressure,[1]; 508 K,9.227 ± 2.9 kPa
same,vapor or sublimation pressure,[1]; 510 K,9.775 ± 3.1 kPa
same,vapor or sublimation pressure,[1]; 512 K,10.31 ± 3.2 kPa
c1ccc2c(c1)OCCOCCOCCOCCOc1ccccc1OCCOCCOCCOCCO2 [dibenzo-30-crown-10],vapor or sublimation pressure,[1]; 545 K,0.0347 ± 0.011 kPa and 0.0354 ± 0.011 kPa
same,vapor or sublimation pressure,[1]; 550 K,0.0405 ± 0.013 kPa and 0.0424 ± 0.014 kPa and 0.0433 ± 0.014 kPa
same,vapor or sublimation pressure,[1]; 555 K,0.0515 ± 0.017 kPa and 0.0526 ± 0.017 kPa and 0.0536 ± 0.017 kPa
same,vapor or sublimation pressure,[1]; 560 K,0.0655 ± 0.021 kPa and 0.0614 ± 0.019 kPa and 0.0649 ± 0.021 kPa
same,vapor or sublimation pressure,[1]; 565 K,0.0772 ± 0.025 kPa and 0.0781 ± 0.025 kPa and 0.0764 ± 0.024 kPa
same,vapor or sublimation pressure,[1]; 570 K,0.0969 ± 0.031 kPa and 0.0924 ± 0.03 kPa and 0.0946 ± 0.03 kPa
same,vapor or sublimation pressure,[1]; 575 K,0.116 ± 0.037 kPa and 0.118 ± 0.038 kPa and 0.1176 ± 0.038 kPa
same,vapor or sublimation pressure,[1]; 580 K,0.1429 ± 0.046 kPa and 0.1455 ± 0.047 kPa and 0.1444 ± 0.047 kPa
same,vapor or sublimation pressure,[1]; 585 K,0.1768 ± 0.057 kPa and 0.1779 ± 0.057 kPa and 0.188 ± 0.06 kPa
same,vapor or sublimation pressure,[1]; 590 K,0.2184 ± 0.069 kPa and 0.2143 ± 0.068 kPa and 0.2192 ± 0.069 kPa
same,vapor or sublimation pressure,[1]; 595 K,0.2675 ± 0.085 kPa and 0.2625 ± 0.083 kPa and 0.2682 ± 0.085 kPa
same,Normal melting temperature,[1]; Crystal,104.5 ± 0.39 °C
same,Molar enthalpy of transition or fusion,[2]; Crystal,86.5 ± 1.8 kJ/mol
same,molar heat capacity at constant pressure,"[3]; 295 K, Crystal",668.8 ± 41 J/K/mol
same,molar heat capacity at constant pressure,"[3]; 298.15 K, Crystal",680.4 ± 42 J/K/mol
same,molar heat capacity at constant pressure,"[3]; 300 K, Crystal",686.9 ± 42 J/K/mol
same,molar heat capacity at constant pressure,"[3]; 305 K, Crystal",700.3 ± 43 J/K/mol
same,molar heat capacity at constant pressure,"[3]; 310 K, Crystal",715.3 ± 44 J/K/mol
same,molar heat capacity at constant pressure,"[3]; 315 K, Crystal",728.4 ± 45 J/K/mol
same,molar heat capacity at constant pressure,"[3]; 320 K, Crystal",741.6 ± 46 J/K/mol
same,molar heat capacity at constant pressure,"[3]; 325 K, Crystal",755.5 ± 47 J/K/mol
same,molar heat capacity at constant pressure,"[3]; 330 K, Crystal",769.9 ± 48 J/K/mol
same,molar heat capacity at constant pressure,"[3]; 335 K, Crystal",783.3 ± 48 J/K/mol
same,molar heat capacity at constant pressure,"[3]; 340 K, Crystal",797 ± 49 J/K/mol
same,molar heat capacity at constant pressure,"[3]; 345 K, Crystal",811.5 ± 50 J/K/mol
same,molar heat capacity at constant pressure,"[3]; 350 K, Crystal",826.4 ± 51 J/K/mol
same,molar heat capacity at constant pressure,"[3]; 355 K, Crystal",844.9 ± 52 J/K/mol
same,molar heat capacity at constant pressure,"[3]; 360 K, Crystal",868.2 ± 54 J/K/mol
same,molar heat capacity at constant pressure,"[3]; 390 K, Liquid",1144.6 ± 68 J/K/mol
same,molar heat capacity at constant pressure,"[3]; 395 K, Liquid",1148.9 ± 69 J/K/mol
same,molar heat capacity at constant pressure,"[3]; 400 K, Liquid",1153 ± 69 J/K/mol
same,molar heat capacity at constant pressure,"[3]; 405 K, Liquid",1159.5 ± 69 J/K/mol
same,molar heat capacity at constant pressure,"[3]; 410 K, Liquid",1164.6 ± 70 J/K/mol
same,molar heat capacity at constant pressure,"[3]; 415 K, Liquid",1169.3 ± 70 J/K/mol
same,molar heat capacity at constant pressure,"[3]; 420 K, Liquid",1179.2 ± 70 J/K/mol
same,molar heat capacity at constant pressure,"[3]; 425 K, Liquid",1186.2 ± 71 J/K/mol
same,molar heat capacity at constant pressure,"[3]; 430 K, Liquid",1187.9 ± 71 J/K/mol
same,molar heat capacity at constant pressure,"[3]; 435 K, Liquid",1195 ± 71 J/K/mol
same,molar heat capacity at constant pressure,"[3]; 440 K, Liquid",1196.6 ± 71 J/K/mol
same,molar heat capacity at constant pressure,"[3]; 445 K, Liquid",1199.2 ± 72 J/K/mol
same,molar heat capacity at constant pressure,"[3]; 450 K, Liquid",1201.2 ± 72 J/K/mol
same,molar heat capacity at constant pressure,"[3]; 455 K, Liquid",1200.9 ± 72 J/K/mol
same,molar heat capacity at constant pressure,"[3]; 460 K, Liquid",1201.6 ± 72 J/K/mol
same,molar heat capacity at constant pressure,"[3]; 465 K, Liquid",1202 ± 72 J/K/mol
same,molar heat capacity at constant pressure,"[3]; 470 K, Liquid",1201.9 ± 72 J/K/mol
c1ccc2c(c1)OCCOCCOCCOc1ccccc1OCCOCCOCCO2 [dibenzo-24-crown-8],vapor or sublimation pressure,[1]; 545 K,0.114 ± 0.037 kPa and 0.1131 ± 0.037 kPa and 0.1132 ± 0.037 kPa
same,vapor or sublimation pressure,[1]; 550 K,0.1434 ± 0.046 kPa and 0.1414 ± 0.045 kPa and 0.1402 ± 0.045 kPa
same,vapor or sublimation pressure,[1]; 555 K,0.1736 ± 0.056 kPa and 0.1757 ± 0.056 kPa and 0.1786 ± 0.057 kPa
same,vapor or sublimation pressure,[1]; 560 K,0.2155 ± 0.069 kPa and 0.2204 ± 0.07 kPa and 0.2198 ± 0.07 kPa
same,vapor or sublimation pressure,[1]; 565 K,0.2674 ± 0.086 kPa and 0.2714 ± 0.087 kPa and 0.2733 ± 0.087 kPa
same,vapor or sublimation pressure,[1]; 570 K,0.3406 ± 0.11 kPa and 0.3372 ± 0.11 kPa and 0.3358 ± 0.11 kPa
same,vapor or sublimation pressure,[1]; 575 K,0.4082 ± 0.13 kPa and 0.4133 ± 0.13 kPa and 0.4103 ± 0.13 kPa
same,vapor or sublimation pressure,[1]; 580 K,0.4998 ± 0.16 kPa and 0.5082 ± 0.16 kPa and 0.5036 ± 0.16 kPa
same,vapor or sublimation pressure,[1]; 585 K,0.607 ± 0.19 kPa and 0.6171 ± 0.2 kPa and 0.6145 ± 0.2 kPa
same,vapor or sublimation pressure,[1]; 590 K,0.7381 ± 0.23 kPa and 0.7487 ± 0.24 kPa and 0.7461 ± 0.24 kPa
same,vapor or sublimation pressure,[1]; 595 K,0.9028 ± 0.29 kPa and 0.897 ± 0.28 kPa and 0.9062 ± 0.29 kPa
same,Normal melting temperature,[1]; Crystal 1,100.72 ± 0.39 °C
same,Triple point temperature,"[1]; Crystal 2, DSC",346.32 ± 0.77 K
same,Molar enthalpy of transition or fusion,[2]; Crystal 1,53.7 ± 1.1 kJ/mol
same,Molar enthalpy of transition or fusion,[2]; Crystal 2,0.98 ± 0.19 kJ/mol
same,molar heat capacity at constant pressure,"[3]; 295 K, Crystal 2",602 ± 60 J/K/mol
same,molar heat capacity at constant pressure,"[3]; 298.15 K, Crystal 2",611.3 ± 60 J/K/mol
same,molar heat capacity at constant pressure,"[3]; 300 K, Crystal 2",615.7 ± 61 J/K/mol
same,molar heat capacity at constant pressure,"[3]; 305 K, Crystal 2",627.3 ± 62 J/K/mol
same,molar heat capacity at constant pressure,"[3]; 310 K, Crystal 2",638.8 ± 63 J/K/mol
same,molar heat capacity at constant pressure,"[3]; 315 K, Crystal 2",648 ± 64 J/K/mol
same,molar heat capacity at constant pressure,"[3]; 320 K, Crystal 2",658.1 ± 65 J/K/mol
same,molar heat capacity at constant pressure,"[3]; 325 K, Crystal 2",668.9 ± 66 J/K/mol
same,molar heat capacity at constant pressure,"[3]; 330 K, Crystal 2",681.3 ± 68 J/K/mol
same,molar heat capacity at constant pressure,"[3]; 335 K, Crystal 2",692.8 ± 69 J/K/mol
same,molar heat capacity at constant pressure,"[3]; 340 K, Crystal 2",706.2 ± 70 J/K/mol
same,molar heat capacity at constant pressure,"[3]; 355 K, Crystal 1",755.6 ± 75 J/K/mol
same,molar heat capacity at constant pressure,"[3]; 360 K, Crystal 1",771.8 ± 76 J/K/mol
same,molar heat capacity at constant pressure,"[3]; 365 K, Crystal 1",802 ± 79 J/K/mol
same,molar heat capacity at constant pressure,"[3]; 380 K, Liquid",921.2 ± 84 J/K/mol
same,molar heat capacity at constant pressure,"[3]; 385 K, Liquid",922.5 ± 84 J/K/mol
same,molar heat capacity at constant pressure,"[3]; 390 K, Liquid",927.3 ± 84 J/K/mol
same,molar heat capacity at constant pressure,"[3]; 395 K, Liquid",930.4 ± 85 J/K/mol
same,molar heat capacity at constant pressure,"[3]; 400 K, Liquid",934.6 ± 85 J/K/mol
same,molar heat capacity at constant pressure,"[3]; 405 K, Liquid",938.7 ± 86 J/K/mol
same,molar heat capacity at constant pressure,"[3]; 410 K, Liquid",943.5 ± 86 J/K/mol
same,molar heat capacity at constant pressure,"[3]; 415 K, Liquid",947.5 ± 86 J/K/mol
same,molar heat capacity at constant pressure,"[3]; 420 K, Liquid",956.1 ± 87 J/K/mol
same,molar heat capacity at constant pressure,"[3]; 425 K, Liquid",962.6 ± 88 J/K/mol
same,molar heat capacity at constant pressure,"[3]; 430 K, Liquid",968.4 ± 88 J/K/mol
same,molar heat capacity at constant pressure,"[3]; 435 K, Liquid",974.4 ± 89 J/K/mol
same,molar heat capacity at constant pressure,"[3]; 440 K, Liquid",979 ± 89 J/K/mol
same,molar heat capacity at constant pressure,"[3]; 445 K, Liquid",985.6 ± 90 J/K/mol
same,molar heat capacity at constant pressure,"[3]; 450 K, Liquid",990.7 ± 90 J/K/mol
same,molar heat capacity at constant pressure,"[3]; 455 K, Liquid",996.8 ± 91 J/K/mol
same,molar heat capacity at constant pressure,"[3]; 460 K, Liquid",1003.2 ± 91 J/K/mol
same,molar heat capacity at constant pressure,"[3]; 465 K, Liquid",1009.9 ± 92 J/K/mol
same,molar heat capacity at constant pressure,"[3]; 470 K, Liquid",1016.5 ± 93 J/K/mol
same,molar heat capacity at constant pressure,"[3]; 475 K, Liquid",1020.4 ± 93 J/K/mol
same,molar heat capacity at constant pressure,"[3]; 480 K, Liquid",1025.3 ± 93 J/K/mol
same,molar heat capacity at constant pressure,"[3]; 485 K, Liquid",1030.6 ± 94 J/K/mol
same,molar heat capacity at constant pressure,"[3]; 490 K, Liquid",1036.3 ± 94 J/K/mol
[Al+3].[Al+3].[O-2].[O-2].[O-2] [aluminum oxide (Al2O3)],molar heat capacity at constant pressure,"[3]; 298.15 K, Crystal",78.8 ± 1.8 J/K/mol
same,molar heat capacity at constant pressure,"[3]; 350 K, Crystal",88.2 ± 2.5 J/K/mol
same,molar heat capacity at constant pressure,"[3]; 450 K, Crystal",101.33 ± 2.6 J/K/mol
